Key:
[1] = test system: brain blood circulation; assay: Effect on the brain blood circulation and on the consumption of oxygen and glucose by the brain, anaesthetized dogs; format: in vivo, dog; design: O2 cap. = amount of oxygen supplied to the brain tissues / art. QO2 / QO2: unit not given here; conditions: 100 mg/kg perorally
Excerpt: Effect of tetrahydroalstonine on the brain blood circulation and on the consumption of oxygen and of glucose by the brain.
On arterial and venous blood sample the concentration of glucose has been determined enzymatically according to the method of hexokinase (C. Hennon and co-workers).
The determination of the pressure of oxygene (PO2) has been carried out with a polarographic analyser and that of carbonic anhydride (PCO2) in the arterial or venous brain blood, using a Duo-Matic electrometer IL 123.

[2] = test system: Hexobarbital-induced sleeping time; assay: Hexobarbital-induced sleeping time; format: in vivo; conditions: rodents, high dosages
[3] = test system: carrageenin-induced paw oedema; conditions: rat, thesis (Kocialski); cited from earlier work

COC(=O)C1=CO[C@@H](C)[C@@H]2CN3CCc4c([nH]c5ccccc45)[C@@H]3C[C@H]12 [Tetrahydroalstonine]
concentration of oxygen in the brain capillars [1]: increased | consumption of glucose by the brain [1]: increase | consumption of oxygen per minute [1]: increased | difference in concentration between arterial and venous oxygen [1]: increased | partial pressure in brain venous oxygen (PO2 VC) [1]: decrease | Cerebral flow ([1]; 45 minutes (Table I)): 89,8 ml/mn | Concentration in capillary oxygen ([1]; 45 minutes (Table I)): 9,3 | Concentration in oxygen/mn ([1]; 45 minutes (Table I)): 12,8 | Consumption in glucose/mn ([1]; 45 minutes (Table I)): 7,1 | G/O = consumption in glucose per mn / concentration in oxygen ([1]; 45 minutes (Table I)): 0,6 | QO2 ([1]; 45 minutes (Table I)): 14,3 | Cerebral flow ([1]; 67 minutes (Table I)): 92,4 ml/mn | Concentration in capillary oxygen ([1]; 67 minutes (Table I)): 8,7 | Concentration in oxygen/mn ([1]; 67 minutes (Table I)): 12,4 | Consumption in glucose/mn ([1]; 67 minutes (Table I)): 10,7 | G/O = consumption in glucose per mn / concentration in oxygen ([1]; 67 minutes (Table I)): 0,9 | QO2 ([1]; 67 minutes (Table I)): 13,1 | Cerebral flow ([1]; 90 minutes (Table I)): 95,8 ml/mn | Concentration in capillary oxygen ([1]; 90 minutes (Table I)): 8,5 | Concentration in oxygen/mn ([1]; 90 minutes (Table I)): 12,4 | Consumption in glucose/mn ([1]; 90 minutes (Table I)): 11,3 | G/O = consumption in glucose per mn / concentration in oxygen ([1]; 90 minutes (Table I)): 1,0 | QO2 ([1]; 90 minutes (Table I)): 12,6 | Cerebral flow ([1]; 112 minutes (Table I)): 90,6 ml/mn | Concentration in capillary oxygen ([1]; 112 minutes (Table I)): 8,4 | Concentration in oxygen/mn ([1]; 112 minutes (Table I)): 11,5 | Consumption in glucose/mn ([1]; 112 minutes (Table I)): 12,1 | G/O = consumption in glucose per mn / concentration in oxygen ([1]; 112 minutes (Table I)): 1,1 | QO2 ([1]; 112 minutes (Table I)): 12,4 | Cerebral flow ([1]; 135 minutes (Table I)): 84,8 ml/mn | Concentration in capillary oxygen ([1]; 135 minutes (Table I)): 8,5 | Concentration in oxygen/mn ([1]; 135 minutes (Table I)): 11,4 | Consumption in glucose/mn ([1]; 135 minutes (Table I)): 10,9 | G/O = consumption in glucose per mn / concentration in oxygen ([1]; 135 minutes (Table I)): 1,2 | QO2 ([1]; 135 minutes (Table I)): 12,9 | CE p. 100 glucose ([1]; +45 min. (Table II)): 8,22 p. 100 | DC = Cerebral blood flow ([1]; +45 min. (Table II)): 90,0 ml/mn | G/O ([1]; +45 min. (Table II)): 1,08 | O2 /min. ([1]; +45 min. (Table II)): 6,14 | O2 cap. = amount of oxygen supplied to the brain tissues ([1]; +45 min. (Table II)): 5,05 | PO2 vc = partial pressure of venous oxygen in the brain ([1]; +45 min. (Table II)): 28,50 | art. QO2 ([1]; +45 min. (Table II)): 14,16 | art. pH ([1]; +45 min. (Table II)): 7,39 | arterial Q gluc. ([1]; +45 min. (Table II)): 900 mg | consumption in Gluc./min. ([1]; +45 min. (Table II)): 6,66 | ΔH^+/ΔQO2 ([1]; +45 min. (Table II)): -4,44 | ΔPCO2/ΔQO2 ([1]; +45 min. (Table II)): 109,97 | ΔQO2 ([1]; +45 min. (Table II)): +6,82 | CE p. 100 glucose ([1]; +67 min. (Table II)): 12,73 p. 100 | DC = Cerebral blood flow ([1]; +67 min. (Table II)): 99,0 ml/mn | G/O ([1]; +67 min. (Table II)): 1,38 | O2 /min. ([1]; +67 min. (Table II)): 8,40 | O2 cap. = amount of oxygen supplied to the brain tissues ([1]; +67 min. (Table II)): 5,95 | PO2 vc = partial pressure of venous oxygen in the brain ([1]; +67 min. (Table II)): 24,25 | art. QO2 ([1]; +67 min. (Table II)): 14,50 | art. pH ([1]; +67 min. (Table II)): 7,425 | arterial Q gluc. ([1]; +67 min. (Table II)): 919 mg | consumption in Gluc./min. ([1]; +67 min. (Table II)): 11,58 | ΔH^+/ΔQO2 ([1]; +67 min. (Table II)): -6,75 | ΔPCO2/ΔQO2 ([1]; +67 min. (Table II)): 114,84 | ΔQO2 ([1]; +67 min. (Table II)): +8,49 | CE p. 100 glucose ([1]; +90 min. (Table II)): 11,70 p. 100 | DC = Cerebral blood flow ([1]; +90 min. (Table II)): 112,5 ml/mn | G/O ([1]; +90 min. (Table II)): 1,20 | O2 /min. ([1]; +90 min. (Table II)): 10,38 | O2 cap. = amount of oxygen supplied to the brain tissues ([1]; +90 min. (Table II)): 6,07 | PO2 vc = partial pressure of venous oxygen in the brain ([1]; +90 min. (Table II)): 21,75 | art. QO2 ([1]; +90 min. (Table II)): 14,25 | art. pH ([1]; +90 min. (Table II)): 7,455 | arterial Q gluc. ([1]; +90 min. (Table II)): 949 mg | consumption in Gluc./min. ([1]; +90 min. (Table II)): 12,49 | ΔH^+/ΔQO2 ([1]; +90 min. (Table II)): -7,96 | ΔPCO2/ΔQO2 ([1]; +90 min. (Table II)): 111,05 | ΔQO2 ([1]; +90 min. (Table II)): +9,23 | CE p. 100 glucose ([1]; +112 min. (Table II)): 12,24 p. 100 | DC = Cerebral blood flow ([1]; +112 min. (Table II)): 112,5 ml/mn | G/O ([1]; +112 min. (Table II)): 1,37 | O2 /min. ([1]; +112 min. (Table II)): 9,74 | O2 cap. = amount of oxygen supplied to the brain tissues ([1]; +112 min. (Table II)): 5,88 | PO2 vc = partial pressure of venous oxygen in the brain ([1]; +112 min. (Table II)): 23,0 | art. QO2 ([1]; +112 min. (Table II)): 13,95 | art. pH ([1]; +112 min. (Table II)): 7,44 | arterial Q gluc. ([1]; +112 min. (Table II)): 972 mg | consumption in Gluc./min. ([1]; +112 min. (Table II)): 13,39 | ΔH^+/ΔQO2 ([1]; +112 min. (Table II)): -7,39 | ΔPCO2/ΔQO2 ([1]; +112 min. (Table II)): 103,93 | ΔQO2 ([1]; +112 min. (Table II)): +8,66 | CE p. 100 glucose ([1]; +135 min. (Table II)): 12,84 p. 100 | DC = Cerebral blood flow ([1]; +135 min. (Table II)): 92,0 ml/mn | G/O ([1]; +135 min. (Table II)): 1,28 | O2 /min. ([1]; +135 min. (Table II)): 9,22 | O2 cap. = amount of oxygen supplied to the brain tissues ([1]; +135 min. (Table II)): 6,33 | PO2 vc = partial pressure of venous oxygen in the brain ([1]; +135 min. (Table II)): 19,75 | art. QO2 ([1]; +135 min. (Table II)): 14,18 | art. pH ([1]; +135 min. (Table II)): 7,48 | arterial Q gluc. ([1]; +135 min. (Table II)): 997 mg | consumption in Gluc./min. ([1]; +135 min. (Table II)): 11,78 | ΔH^+/ΔQO2 ([1]; +135 min. (Table II)): -8,75 | ΔPCO2/ΔQO2 ([1]; +135 min. (Table II)): 129,74 | ΔQO2 ([1]; +135 min. (Table II)): +10,02 | blood flow ([1]; conclusion): noticeable and extended over a large period of time increase | brain metabolism ([1]; conclusion): significant improvement | Hexobarbital-induced sleeping time [2]: increased | effect on carrageenin-induced paw oedema [3]: negative

Reference: patent US3969521A, “Pharmaceutical compositions containing tetrahydroalstonine and method for treating circulation disorders” (Science Union et Cie, Societe Francaise de Recherche Medical, priority 1974, dated 1976)
